Experiment [1] deals with T1, Prolyl endopeptidase, Prolyl Oligopeptidase (hPREP) (Homo sapiens, UniProt P48147).
T1 sequence (P48147 1-710): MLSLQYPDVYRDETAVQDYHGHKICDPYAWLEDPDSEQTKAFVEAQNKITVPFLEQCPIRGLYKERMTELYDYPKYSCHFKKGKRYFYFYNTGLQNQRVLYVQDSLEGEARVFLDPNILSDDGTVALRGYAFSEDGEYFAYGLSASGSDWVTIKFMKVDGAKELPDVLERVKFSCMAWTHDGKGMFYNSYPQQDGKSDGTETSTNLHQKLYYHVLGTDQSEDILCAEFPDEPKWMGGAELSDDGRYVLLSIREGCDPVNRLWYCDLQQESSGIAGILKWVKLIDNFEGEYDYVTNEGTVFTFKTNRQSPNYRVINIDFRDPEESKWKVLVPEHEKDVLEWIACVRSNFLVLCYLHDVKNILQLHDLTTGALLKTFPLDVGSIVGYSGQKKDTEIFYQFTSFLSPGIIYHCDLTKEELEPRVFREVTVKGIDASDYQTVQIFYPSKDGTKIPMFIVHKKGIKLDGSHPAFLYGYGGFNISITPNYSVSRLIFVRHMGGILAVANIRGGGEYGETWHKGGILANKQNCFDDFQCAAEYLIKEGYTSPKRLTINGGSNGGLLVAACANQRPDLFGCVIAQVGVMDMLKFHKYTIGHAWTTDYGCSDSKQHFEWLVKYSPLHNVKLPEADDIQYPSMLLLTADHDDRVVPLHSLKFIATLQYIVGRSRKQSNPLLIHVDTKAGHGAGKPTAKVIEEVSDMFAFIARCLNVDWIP
The experiment in a line: biochemical.
Description: Compounds were tested in a biochemical inhibition assay using Prolyl endopeptidase, Prolyl Oligopeptidase (hPREP) enzyme at 0.6 nM FAC (R&D Systems, 4308-SE) and the substrate Z-Gly-Pro-amino-methylcoumarin (Bachem, I-1145) at 50 μM FAC. 384 Low volume black plates (Greiner #784076) were used. […] Plates were incubated for 15 min at rt in dark. 4 μL, 100 μM substrate solution (25 mM Tris HCl, 250 mM NaCl, 0.01% Triton X-100, 5 mM Glutathione, pH 7.5) was added to each well. Plates were centrifuged at 1000 rpm and incubated for 20 min at rt in dark. The plates were read on a PHERAstar® reader with excitation 340 nm and emission 460 nm. Data were analyzed in Genedata Screener®. IC50 values were determined by plotting % inhibition versus log compound concentration and using a one site dose response model.

The next experiment has as its target T2, hFAP (M39-A757) (Homo sapiens, UniProt Q12884).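 Further: surface plasmon resonance direct binding to hFAP amine-coupled on a sensor chip, rising compound concentrations by single cycle kinetics, Kd from global fit of interaction models.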
T2 sequence (Q12884 39-757): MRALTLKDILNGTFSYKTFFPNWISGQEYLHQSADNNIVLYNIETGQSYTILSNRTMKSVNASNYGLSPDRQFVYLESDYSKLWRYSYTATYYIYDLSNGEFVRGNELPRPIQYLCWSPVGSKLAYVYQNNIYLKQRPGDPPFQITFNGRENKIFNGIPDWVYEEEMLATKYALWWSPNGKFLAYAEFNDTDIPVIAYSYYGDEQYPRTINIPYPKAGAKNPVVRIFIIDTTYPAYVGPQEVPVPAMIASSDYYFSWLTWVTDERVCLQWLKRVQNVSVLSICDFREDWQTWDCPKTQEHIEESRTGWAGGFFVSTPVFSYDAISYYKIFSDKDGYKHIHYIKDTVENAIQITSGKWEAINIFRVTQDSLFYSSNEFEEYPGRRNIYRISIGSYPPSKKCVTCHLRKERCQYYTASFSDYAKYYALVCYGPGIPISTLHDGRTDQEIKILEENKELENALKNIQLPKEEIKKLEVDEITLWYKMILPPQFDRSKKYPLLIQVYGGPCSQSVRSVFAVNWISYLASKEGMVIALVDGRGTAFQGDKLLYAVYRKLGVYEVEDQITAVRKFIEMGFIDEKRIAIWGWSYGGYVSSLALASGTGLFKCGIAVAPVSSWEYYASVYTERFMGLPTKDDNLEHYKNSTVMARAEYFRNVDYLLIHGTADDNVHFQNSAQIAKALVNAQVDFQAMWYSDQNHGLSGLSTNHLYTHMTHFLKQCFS
The experiment in a line: biochemical.

As a reminder, the IC50 is the midpoint of a concentration-inhibition curve. A lower IC50 goes with greater potency. What is called Kd is the free concentration of one partner at which half of the binding sites on the other are occupied at equilibrium, for simple one-to-one binding.

The molecule `N#C[C@@H]1CSCN1C(=O)CNC(=O)c1ccnc2ccc(CC3CCOCC3)cc12` [Example 56, (R)—N-(2-(4-Cyanothiazolidin-3-yl)-2-oxoethyl)-6-((tetrahydro-2H-pyran-4-yl)methyl)quinoline-4-carboxamide] returned an IC50 in experiment [1] of 500 nM. The same measure, in the same setting: the same measure for `CO[C@H]1CC[C@@H](c2ccc3nccc(C(=O)NCC(=O)N4CSC[C@H]4C#N)c3c2)CC1` (single isomer, unassigned) [Example 79, N-(2-((R)-4-Cyanothiazolidin-3-yl)-2-oxoethyl)-6-((1r,4R*)-4-methoxycyclohexyl)quinoline-4-carboxamide]: 610 nM; for `C#CC1(c2ccc3nccc(C(=O)NCC(=O)N4CSC[C@H]4C#N)c3c2)CCOCC1` [Example 57, (R)—N-(2-(4-Cyanothiazolidin-3-yl)-2-oxoethyl)-6-(4-ethynyl-tetrahydro-2H-pyran-4-yl)quinoline-4-carboxamide]: 790 nM.

For `CC(c1ccc2nccc(C(=O)NCC(=O)N3CSC[C@H]3C#N)c2c1)c1ncccc1F` (mixture of isomers) [Example 12, N-(2-((R)-4-Cyanothiazolidin-3-yl)-2-oxoethyl)-6-((RS)-1-(3-fluoropyridin-2-yl)ethyl)quinoline-4-carboxamide], the Kd at hFAP (M39-A757) is 0.19 nM. The molecule also had a half-inhibitory concentration (IC50) in experiment [1] of 110 nM. In the same order, the values of `N#C[C@@H]1CSCN1C(=O)CNC(=O)c1ccnc2ccc(C3(c4ncccc4F)CC3)cc12` [Example 44, (R)—N-(2-(4-Cyanothiazolidin-3-yl)-2-oxoethyl)-6-(1-(3-fluoropyridin-2-yl)cyclopropyl)quinoline-4-carboxamide] are 0.14 nM and 65 nM.

Turning to `N#C[C@@H]1CSCN1C(=O)CNC(=O)c1ccnc2ccc(OCC3CC3)cc12` [Example 5, (R)—N-(2-(4-Cyanothiazolidin-3-yl)-2-oxoethyl)-6-(cyclopropyl-methoxy)quinoline-4-carboxamide], in experiment [1], the IC50 was 400 nM.

For the molecule `CC(F)(F)COc1ccc2nccc(C(=O)NCC(=O)N3CSC[C@H]3C#N)c2c1` [Example 11, (R)—N-(2-(4-Cyanothiazolidin-3-yl)-2-oxoethyl)-6-(2,2-difluoropropoxy)quinoline-4-carboxamide], the IC50 in experiment [1] is 290 nM. Still for that read-out and setting: the same measure for `CCOCc1ccc2nccc(C(=O)NCC(=O)N3CSC[C@H]3C#N)c2c1` [Example 27, (R)—N-(2-(4-cyanothiazolidin-3-yl)-2-oxoethyl)-6-(ethoxymethyl)-quinoline-4-carboxamide]: 140 nM. Turning to `N#C[C@@H]1CSCN1C(=O)CNC(=O)c1ccnc2ccc(CC3CCOC3)cc12` (mixture of isomers) [Example 65, N-(2-((R)-4-Cyanothiazolidin-3-yl)-2-oxoethyl)-6-(((RS)-tetrahydrofuran-3-yl)methyl)quinoline-4-carboxamide], the Kd at hFAP (M39-A757) worked out at 0.091 nM. This molecule gave an IC50 in experiment [1] of 210 nM. In the case of `CC1(C)CC(Oc2ccc3nccc(C(=O)NCC(=O)N4CSC[C@H]4C#N)c3c2)CCO1` (mixture of isomers) [Example 9, N-(2-((R)-4-Cyanothiazolidin-3-yl)-2-oxoethyl)-6-(((RS)-2,2-dimethyltetrahydro-2H-pyran-4-yl)oxy)quinoline-4-carboxamide], half-maximal inhibition in experiment [1] (IC50) was put at 870 nM. On hFAP (M39-A757), `N#C[C@@H]1CSCN1C(=O)CNC(=O)c1ccnc2ccc(C3(c4ccc(Cl)cn4)CC3)cc12` [Example 47, (R)-6-(1-(5-Chloropyridin-2-yl)cyclopropyl)-N-(2-(4-cyanothiazolidin-3-yl)-2-oxoethyl)quinoline-4-carboxamide] had a Kd of 0.22 nM. Besides, the midpoint of inhibition in experiment [1], the IC50, lay at 240 nM. In the case of `N#C[C@@H]1CSCN1C(=O)CNC(=O)c1ccnc2ccc(OCCF)cc12` [Example 74, (R)—N-(2-(4-Cyanothiazolidin-3-yl)-2-oxoethyl)-6-(2-fluoroethoxy)-quinoline-4-carboxamide], in experiment [1], 83 nM corresponded to half-maximal inhibition (IC50). The molecule `N#C[C@@H]1CSCN1C(=O)CNC(=O)c1ccnc2ccc(COC3CC3)cc12` [Example 37, (R)—N-(2-(4-Cyanothiazolidin-3-yl)-2-oxoethyl)-6-(cyclopropoxy-methyl)quinoline-4-carboxamide] displayed a 50% inhibitory concentration (IC50) in experiment [1] of 170 nM. `N#C[C@@H]1CSCN1C(=O)CNC(=O)c1ccnc2ccc(CN3CCOCC3)cc12` [Example 24, (R)—N-(2-(4-Cyanothiazolidin-3-yl)-2-oxoethyl)-6-(morpholino-methyl)quinoline-4-carboxamide] had a Kd at hFAP (M39-A757) of 0.33 nM. Also, the IC50 in experiment [1] was 1000 nM.

Take `CCCOc1ccc2nccc(C(=O)NCC(=O)N3CSC[C@H]3C#N)c2c1` [Example 73, (R)—N-(2-(4-Cyanothiazolidin-3-yl)-2-oxoethyl)-6-propoxyquinoline-4-carboxamide]: the half-maximal inhibitory concentration (IC50) in experiment [1] was 160 nM. Same read-out and setting: the same measure for `N#C[C@@H]1CSCN1C(=O)CNC(=O)c1ccnc2ccc(COC3CCOC3)cc12` (mixture of isomers) [Example 35, N-(2-((R)-4-Cyanothiazolidin-3-yl)-2-oxoethyl)-6-((((RS)-tetrahydrofuran-3-yl)oxy)methyl)quinoline-4-carboxamide]: 460 nM. Molecule `N#C[C@@H]1CSCN1C(=O)CNC(=O)c1ccnc2ccc(C3(F)CCOCC3)cc12` [Example 64, (R)—N-(2-(4-Cyanothiazolidin-3-yl)-2-oxoethyl)-6-(4-fluorotetrahydro-2H-pyran-4-yl)quinoline-4-carboxamide] registered a Kd at hFAP (M39-A757) of 0.042 nM. The same molecule gave an IC50 in experiment [1] of 300 nM.

In the case of `Cc1cc(C(C)c2ccc3nccc(C(=O)NCC(=O)N4CSC[C@H]4C#N)c3c2)no1` (mixture of isomers) [Example 46, N-(2-((R)-4-Cyanothiazolidin-3-yl)-2-oxoethyl)-6-((RS)-1-(5-methylisoxazol-3-yl)ethyl)quinoline-4-carboxamide], the Kd at hFAP (M39-A757) is 0.13 nM. In experiment [1], this molecule had an IC50 of 80 nM.

`N#C[C@@H]1CSCN1C(=O)CNC(=O)c1ccnc2ccc([C@H]3CC[C@H](C#N)CC3)cc12` (single isomer, unassigned) [Example 54, 6-((1r,4R*)-4-Cyanocyclohexyl)-N-(2-((R)-4-cyanothiazolidin-3-yl)-2-oxoethyl)quinoline-4-carboxamide] registered an IC50 in experiment [1] of 620 nM.

`N#C[C@@H]1CSCN1C(=O)CNC(=O)c1ccnc2ccc(C3(F)CCC3)cc12` [Example 75, (R)—N-(2-(4-Cyanothiazolidin-3-yl)-2-oxoethyl)-6-(1-fluoro-cyclobutyl)quinoline-4-carboxamide] registered an IC50 in experiment [1] of 46 nM. Still for that read-out and setting: the same measure for `COCCc1ccc2nccc(C(=O)NCC(=O)N3CSC[C@H]3C#N)c2c1` [Example 82, (R)—N-(2-(4-cyanothiazolidin-3-yl)-2-oxoethyl)-6-(2-methoxyethyl)quinoline-4-carboxamide]: 48 nM; for `N#C[C@@H]1CSCN1C(=O)CNC(=O)c1ccnc2ccc(COCC(F)F)cc12` [Example 36, (R)—N-(2-(4-Cyanothiazolidin-3-yl)-2-oxoethyl)-6-((2,2-difluoroethoxy)methyl)quinoline-4-carboxamide]: 170 nM; for `Cc1cc(C2(c3ccc4nccc(C(=O)NCC(=O)N5CSC[C@H]5C#N)c4c3)CC2)on1` [Example 50, (R)—N-(2-(4-Cyanothiazolidin-3-yl)-2-oxoethyl)-6-(1-(3-methylisoxazol-5-yl)cyclopropyl)quinoline-4-carboxamide]: 130 nM. The same measure, in the same setting: the same measure for `N#C[C@@H]1CSCN1C(=O)CNC(=O)c1ccnc2ccc([C@H]3CC[C@H](C#N)CC3)cc12` (single isomer, unassigned) [Example 55, 6-((1r,4R*)-4-Cyanocyclohexyl)-N-(2-((R)-4-cyanothiazolidin-3-yl)-2-oxoethyl)quinoline-4-carboxamide]: 330 nM; for `N#CCOc1ccc2nccc(C(=O)NCC(=O)N3CSC[C@H]3C#N)c2c1` [Example 10, (R)-6-(Cyanomethoxy)-N-(2-(4-cyanothiazolidin-3-yl)-2-oxoethyl)quinoline-4-carboxamide]: 32 nM; for `COCCCc1ccc2nccc(C(=O)NCC(=O)N3CSC[C@H]3C#N)c2c1` [Example 81, (R)—N-(2-(4-cyanothiazolidin-3-yl)-2-oxoethyl)-6-(3-methoxypropyl)quinoline-4-carboxamide]: 62 nM.

For the origin of these results see US20260070899A1, “N-(2-(4-CYANOTHIAZOLIDIN-3-YL)-2-OXOETHYL)-QUINOLINE-4-CARBOXAMIDES” (AstraZeneca AB, priority 2022, published 2026).
